Measured values from PubChem BioAssay (NCI).
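A five-concentration, 48-hour dose response in 96-well plates underlies each endpoint, interpolated linearly between surrounding concentrations. TGI is the concentration that stops growth completely.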

Columns and labels:
Test in all cases: growth of human tumour cells (NCI), 48 h
A549 NSCLC = test system: A549 NSCLC
OVCAR-4 ovarian = test system: OVCAR-4 ovarian
786-0 renal = test system: 786-0 renal
K-562 leukemia = test system: K-562 leukemia
ACHN renal = test system: ACHN renal
HOP-62 NSCLC = test system: HOP-62 NSCLC
A498 renal = test system: A498 renal
OVCAR-5 ovarian = test system: OVCAR-5 ovarian
HL-60(TB) leukemia = test system: HL-60(TB) leukemia
DU-145 prostate = test system: DU-145 prostate
CCRF-CEM leukemia = test system: CCRF-CEM leukemia
SF-295 CNS = test system: SF-295 CNS
LOX IMVI melanoma = test system: LOX IMVI melanoma
MDA-MB-231 breast = test system: MDA-MB-231 breast
SNB-19 CNS = test system: SNB-19 CNS
EKVX NSCLC = test system: EKVX NSCLC
HOP-92 NSCLC = test system: HOP-92 NSCLC
MDA-N = test system: MDA-N
MOLT-4 leukemia = test system: MOLT-4 leukemia
M14 melanoma = test system: M14 melanoma
RPMI-8226 leukemia = test system: RPMI-8226 leukemia
TK-10 renal = test system: TK-10 renal
UACC-62 melanoma = test system: UACC-62 melanoma
OVCAR-3 ovarian = test system: OVCAR-3 ovarian
NCI-H23 lung = test system: NCI-H23 lung
COLO 205 colon = test system: COLO 205 colon
SR leukemia = test system: SR leukemia
PC-3 prostate = test system: PC-3 prostate
SNB-75 CNS = test system: SNB-75 CNS
SF-268 CNS = test system: SF-268 CNS
MDA-MB-435 = test system: MDA-MB-435
HS 578T breast = test system: HS 578T breast
BT-549 breast = test system: BT-549 breast
CAKI-1 renal = test system: CAKI-1 renal
OVCAR-8 ovarian = test system: OVCAR-8 ovarian
UO-31 renal = test system: UO-31 renal
KM12 colon = test system: KM12 colon
RXF 393 renal = test system: RXF 393 renal
HCT-15 colon = test system: HCT-15 colon
T-47D breast = test system: T-47D breast
NCI-H460 lung = test system: NCI-H460 lung
SW-620 colon = test system: SW-620 colon
U251 CNS = test system: U251 CNS
SF-539 CNS = test system: SF-539 CNS
IGROV1 ovarian = test system: IGROV1 ovarian
HT29 colon = test system: HT29 colon
SK-MEL-2 melanoma = test system: SK-MEL-2 melanoma
HCT-116 colon = test system: HCT-116 colon
SK-MEL-28 melanoma = test system: SK-MEL-28 melanoma
SK-OV-3 ovarian = test system: SK-OV-3 ovarian
MCF7 breast = test system: MCF7 breast
SN12C renal = test system: SN12C renal
NCI/ADR-RES ovarian = test system: NCI/ADR-RES ovarian
HCC-2998 colon = test system: HCC-2998 colon
NCI-H226 lung = test system: NCI-H226 lung
UACC-257 melanoma = test system: UACC-257 melanoma
SK-MEL-5 melanoma = test system: SK-MEL-5 melanoma
MALME-3M melanoma = test system: MALME-3M melanoma

`COc1ccc(/C=C2\CCS(=O)(=O)c3ccccc3C2=O)cc1` showed a TGI (A549 NSCLC) greater than 100 µM, a TGI (OVCAR-4 ovarian) of 58.8 µM and a TGI (786-0 renal) of 34.6 µM. It also gave a TGI (K-562 leukemia) greater than 100 µM, a TGI (ACHN renal) of 47.2 µM and a TGI (HOP-62 NSCLC) greater than 100 µM. It also gave a TGI (A498 renal) of 37.1 µM, a TGI (OVCAR-5 ovarian) greater than 100 µM and a TGI (HL-60(TB) leukemia) of 66.4 µM. For the same compound, the TGI (DU-145 prostate) was 61 µM, the TGI (CCRF-CEM leukemia) was 68.5 µM and the TGI (SF-295 CNS) was 98.9 µM. It also gave a TGI (LOX IMVI melanoma) of 40.4 µM, a TGI (MDA-MB-231 breast) of 75.3 µM and a TGI (SNB-19 CNS) of 70.6 µM. For the same compound, the TGI (EKVX NSCLC) was 46.4 µM, the TGI (HOP-92 NSCLC) was 71.7 µM and the TGI (MDA-N) was 77.3 µM. The TGI (MOLT-4 leukemia) was 65.2 µM, the TGI (M14 melanoma) was greater than 100 µM and the TGI (RPMI-8226 leukemia) was 61 µM. It also gave a TGI (TK-10 renal) of 61.6 µM, a TGI (UACC-62 melanoma) of 42.4 µM and a TGI (OVCAR-3 ovarian) of 93.8 µM. For the same compound, the TGI (NCI-H23 lung) was 47.6 µM, the TGI (COLO 205 colon) was 30.5 µM and the TGI (SR leukemia) was 40.5 µM. The TGI (PC-3 prostate) was 75.3 µM, the TGI (SNB-75 CNS) was greater than 100 µM and the TGI (SF-268 CNS) was 98.2 µM. For the same compound, the TGI (MDA-MB-435) was 89.8 µM, the TGI (HS 578T breast) was 82.8 µM and the TGI (BT-549 breast) was 79.8 µM. It also gave a TGI (CAKI-1 renal) of 67.5 µM, a TGI (OVCAR-8 ovarian) of 53.4 µM and a TGI (UO-31 renal) of 38 µM. For the same compound, the TGI (KM12 colon) was 31 µM, the TGI (RXF 393 renal) was 46.4 µM and the TGI (HCT-15 colon) was 43.1 µM. The TGI (T-47D breast) was 74.3 µM, the TGI (NCI-H460 lung) was 57 µM and the TGI (SW-620 colon) was 49.1 µM. For the same compound, the TGI (U251 CNS) was 37.7 µM, the TGI (SF-539 CNS) was 67.4 µM and the TGI (IGROV1 ovarian) was 43.1 µM. For the same compound, the TGI (HT29 colon) was 35.9 µM, the TGI (SK-MEL-2 melanoma) was 96.4 µM and the TGI (HCT-116 colon) was 31.2 µM. The TGI (SK-MEL-28 melanoma) was 72 µM, the TGI (SK-OV-3 ovarian) was greater than 100 µM and the TGI (MCF7 breast) was greater than 100 µM. For the same compound, the TGI (SN12C renal) was 77.3 µM, the TGI (NCI/ADR-RES ovarian) was 50 µM and the TGI (HCC-2998 colon) was 38.6 µM. For the same compound, the TGI (NCI-H226 lung) was 62.8 µM and the TGI (UACC-257 melanoma) was 56.5 µM.

With `COc1cc(-c2cc(=O)c3c(O)c(CC=C(C)C)c(O)cc3o2)ccc1O` the TGI (A549 NSCLC) was greater than 50 µM, the TGI (OVCAR-4 ovarian) was 43.6 µM and the TGI (K-562 leukemia) was greater than 50 µM. For the same compound, the TGI (ACHN renal) was greater than 50 µM, the TGI (HOP-62 NSCLC) was greater than 50 µM and the TGI (A498 renal) was greater than 50 µM. The TGI (OVCAR-5 ovarian) was greater than 50 µM, the TGI (HL-60(TB) leukemia) was greater than 50 µM and the TGI (DU-145 prostate) was greater than 50 µM. For the same compound, the TGI (CCRF-CEM leukemia) was greater than 50 µM, the TGI (SK-MEL-5 melanoma) was greater than 50 µM and the TGI (SF-295 CNS) was 31.2 µM. It also gave a TGI (LOX IMVI melanoma) greater than 50 µM, a TGI (MDA-MB-231 breast) greater than 50 µM and a TGI (SNB-19 CNS) greater than 50 µM. It also gave a TGI (EKVX NSCLC) of 32.5 µM, a TGI (HOP-92 NSCLC) greater than 50 µM and a TGI (MDA-N) of 20.2 µM. The TGI (MOLT-4 leukemia) was greater than 50 µM, the TGI (M14 melanoma) was 39.7 µM and the TGI (RPMI-8226 leukemia) was 36.3 µM. The TGI (TK-10 renal) was greater than 50 µM, the TGI (UACC-62 melanoma) was greater than 50 µM and the TGI (OVCAR-3 ovarian) was greater than 50 µM. The TGI (NCI-H23 lung) was greater than 50 µM, the TGI (MALME-3M melanoma) was greater than 50 µM and the TGI (COLO 205 colon) was greater than 50 µM. For the same compound, the TGI (SR leukemia) was 41.9 µM, the TGI (PC-3 prostate) was greater than 50 µM and the TGI (SF-268 CNS) was greater than 50 µM. The TGI (MDA-MB-435) was 22 µM, the TGI (HS 578T breast) was greater than 50 µM and the TGI (BT-549 breast) was greater than 50 µM. For the same compound, the TGI (CAKI-1 renal) was 28 µM, the TGI (OVCAR-8 ovarian) was greater than 50 µM and the TGI (UO-31 renal) was greater than 50 µM. It also gave a TGI (RXF 393 renal) greater than 50 µM, a TGI (HCT-15 colon) greater than 50 µM and a TGI (T-47D breast) of 40.8 µM. The TGI (NCI-H460 lung) was greater than 50 µM, the TGI (SW-620 colon) was greater than 50 µM and the TGI (U251 CNS) was greater than 50 µM. For the same compound, the TGI (SF-539 CNS) was 47.6 µM, the TGI (IGROV1 ovarian) was greater than 50 µM and the TGI (HT29 colon) was greater than 50 µM. The TGI (SK-MEL-2 melanoma) was greater than 50 µM, the TGI (HCT-116 colon) was greater than 50 µM and the TGI (SK-MEL-28 melanoma) was 26.7 µM. For the same compound, the TGI (SK-OV-3 ovarian) was greater than 50 µM, the TGI (MCF7 breast) was greater than 50 µM and the TGI (SN12C renal) was greater than 50 µM. It also gave a TGI (NCI/ADR-RES ovarian) greater than 50 µM, a TGI (NCI-H226 lung) greater than 50 µM and a TGI (UACC-257 melanoma) greater than 50 µM.
